Where “and” joins values, the source holds several entries; their conditions need not be identical. Identical values can stand only once. Like-named read-outs stand apart in the source and are kept apart here.
Key:
rat TRPA1 [1] = biological target: T1, rat TRPA1 (Rattus norvegicus, UniProt Q6RI86); set-up: method as in PMID 21175579; settings: cited from earlier work; for TRPA1 Efficacy (%ITC 100 μM): percentage of the effect of 100 μM allylisothiocyanate
T1 construct: expressed in transfected cells; host or cells: HEK-293

rat TRPV4 = biological target: T2, rat TRPV4 (Rattus norvegicus, UniProt Q9ERZ8); set-up: method as in PMID 21175579, PMID 21726418; settings: cited from earlier work; for TRPV4 Efficacy (% IM 4 μM): percentage of the response to ionomycin 4 μM; for EC50: read-out: TRPV4 Potency EC50, half-maximal increase in [Ca2+]i
T2 construct: expressed in transfected cells; host or cells: HEK-293

rat TRPV2 = biological target: T3, rat TRPV2 (Rattus norvegicus, UniProt Q9WUD2); set-up: method as in PMID 21175579, PMID 21726418; settings: cited from earlier work; for TRPV2 Efficacy (% IM 4 μM): percentage of the response to ionomycin 4 μM
T3 construct: expressed in transfected cells; host or cells: HEK-293
T3 sequence (Q9WUD2 1-761): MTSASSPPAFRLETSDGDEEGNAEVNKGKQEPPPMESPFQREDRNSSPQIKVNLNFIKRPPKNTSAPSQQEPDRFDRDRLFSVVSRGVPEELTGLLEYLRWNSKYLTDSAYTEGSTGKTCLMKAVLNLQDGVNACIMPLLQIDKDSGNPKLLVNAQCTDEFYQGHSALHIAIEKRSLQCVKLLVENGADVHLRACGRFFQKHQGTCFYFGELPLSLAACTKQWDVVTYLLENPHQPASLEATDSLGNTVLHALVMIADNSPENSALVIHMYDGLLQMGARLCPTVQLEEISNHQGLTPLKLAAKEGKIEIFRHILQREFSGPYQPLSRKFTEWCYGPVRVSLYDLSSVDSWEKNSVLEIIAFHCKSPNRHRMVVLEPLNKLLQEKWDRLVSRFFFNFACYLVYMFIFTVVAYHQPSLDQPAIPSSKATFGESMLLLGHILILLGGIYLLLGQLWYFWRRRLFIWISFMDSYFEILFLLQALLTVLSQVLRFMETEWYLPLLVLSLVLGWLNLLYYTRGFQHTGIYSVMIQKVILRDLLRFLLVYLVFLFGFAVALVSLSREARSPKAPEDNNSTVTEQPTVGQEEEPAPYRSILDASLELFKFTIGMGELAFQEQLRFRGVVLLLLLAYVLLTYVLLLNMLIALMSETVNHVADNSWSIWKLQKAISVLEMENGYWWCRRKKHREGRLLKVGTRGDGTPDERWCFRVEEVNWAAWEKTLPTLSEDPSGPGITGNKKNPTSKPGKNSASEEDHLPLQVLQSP

rat TRPV3 = biological target: T4, rat TRPV3 (Rattus norvegicus, UniProt Q4QYD9); set-up: method as in PMID 21175579, PMID 21726418; settings: cited from earlier work; for EC50: half-maximal increase in [Ca2+]i; for TRPV3 Efficacy (% IM 4 μM): percentage of the response to ionomycin 4 μM
T4 construct: expressed in transfected cells; host or cells: HEK-293
T4 sequence (Q4QYD9 1-791): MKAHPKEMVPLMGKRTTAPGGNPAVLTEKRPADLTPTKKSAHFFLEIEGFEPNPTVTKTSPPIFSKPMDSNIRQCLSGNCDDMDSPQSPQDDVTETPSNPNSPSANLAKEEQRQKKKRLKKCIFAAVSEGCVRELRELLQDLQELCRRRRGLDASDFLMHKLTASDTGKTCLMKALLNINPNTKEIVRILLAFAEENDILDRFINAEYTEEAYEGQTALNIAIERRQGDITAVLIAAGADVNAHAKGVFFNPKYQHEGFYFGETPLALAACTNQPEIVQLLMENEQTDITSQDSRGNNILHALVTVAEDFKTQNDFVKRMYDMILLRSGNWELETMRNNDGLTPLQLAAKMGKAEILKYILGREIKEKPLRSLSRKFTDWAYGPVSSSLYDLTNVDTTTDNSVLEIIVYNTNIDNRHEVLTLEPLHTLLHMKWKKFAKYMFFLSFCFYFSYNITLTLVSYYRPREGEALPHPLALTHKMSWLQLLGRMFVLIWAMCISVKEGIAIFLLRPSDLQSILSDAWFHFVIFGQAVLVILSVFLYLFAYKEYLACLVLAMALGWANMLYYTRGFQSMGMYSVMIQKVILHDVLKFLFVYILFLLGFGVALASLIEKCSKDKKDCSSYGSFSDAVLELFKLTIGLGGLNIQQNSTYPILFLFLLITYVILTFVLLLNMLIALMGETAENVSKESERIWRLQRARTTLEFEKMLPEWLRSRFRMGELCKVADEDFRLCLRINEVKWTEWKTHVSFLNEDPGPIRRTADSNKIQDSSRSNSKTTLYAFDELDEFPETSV

human TRPV1 [2] = biological target: T5, human TRPV1 (Homo sapiens, UniProt Q8NER1); set-up: method as in PMID 21175579; settings: cited from earlier work; for TRPV1 Efficacy (% IM 4 μM): percentage of the response to ionomycin 4 μM
T5 construct: expressed in transfected cells; host or cells: HEK-293

human TRPV1 [3] = biological target: T5, human TRPV1; experiment: TRPV1-mediated elevation of intracellular Ca2+ (Fluo-4) in transfected HEK-293 cells; format: cell-based
Procedure: (§1) Assays of rat TRPA1, TRPV2, TRPV3, TRPV4, and TRPM8 or human TRPV1 mediated elevation of intracellular Ca ^2+ in transfected HEK-293 cells were performed with a continuous monitoring of [Ca ^2+]i during the experiments. […] Cell fluorescence before and after the addition of various concentrations of test compounds was measured, normalizing the effects against the response to ionomycin (IM, 4 μM). The values of the effect on [Ca^2+]i in HEK-293 cells not transfected were used as baseline and subtracted from the values obtained from transfected cells. For TRPA1, agonist efficacy was expressed as a percentage of the effect on [Ca ^2+]i observed with 100 μM allylisothiocyanate. […] In the TRPV3 assay, TRPV3-expressing HEK293 cells were first sensitized with the structurally unrelated agonist 2-aminoethoxydiphenyl borate (100 μM). Antagonist/desensitizing behavior is evaluated against the agonist of the TRP analyzed by adding the compounds directly in the quartz cuvette 5 min before stimulation of cells with the agonist. […] Dose-response curve fitting (sigmoidal dose-response variable slope) and parameter estimation were performed with Graph-Pad Prism8 (GraphPad Software Inc., San Diego, CA, USA). All determinations were performed at least in triplicate.

rat TRPA1 [4] = biological target: T1, rat TRPA1; experiment: TRPA1-mediated elevation of intracellular Ca2+ (Fluo-4) in transfected HEK-293 cells; format: cell-based
Procedure: as §1

rat TRPM8 [5] = biological target: T6, rat TRPM8 (Rattus norvegicus, UniProt Q8R455); experiment: TRPM8 antagonism of icilin-induced intracellular Ca2+ elevation (Fluo-4) in transfected HEK-293 cells; format: cell-based; settings: IC50 TRPM8, antagonist; compound added 5 min before agonist icilin 0.25 μM
T6 construct: expressed in transfected cells; host or cells: HEK-293
Procedure: as §1

rat TRPM8 [6] = biological target: T6, rat TRPM8; set-up: method as in PMID 21175579; settings: read-out: IC50 TRPM8; against agonist icilin 0.25 μM; cited from earlier work

T2 sequence (Q9ERZ8 whole entry): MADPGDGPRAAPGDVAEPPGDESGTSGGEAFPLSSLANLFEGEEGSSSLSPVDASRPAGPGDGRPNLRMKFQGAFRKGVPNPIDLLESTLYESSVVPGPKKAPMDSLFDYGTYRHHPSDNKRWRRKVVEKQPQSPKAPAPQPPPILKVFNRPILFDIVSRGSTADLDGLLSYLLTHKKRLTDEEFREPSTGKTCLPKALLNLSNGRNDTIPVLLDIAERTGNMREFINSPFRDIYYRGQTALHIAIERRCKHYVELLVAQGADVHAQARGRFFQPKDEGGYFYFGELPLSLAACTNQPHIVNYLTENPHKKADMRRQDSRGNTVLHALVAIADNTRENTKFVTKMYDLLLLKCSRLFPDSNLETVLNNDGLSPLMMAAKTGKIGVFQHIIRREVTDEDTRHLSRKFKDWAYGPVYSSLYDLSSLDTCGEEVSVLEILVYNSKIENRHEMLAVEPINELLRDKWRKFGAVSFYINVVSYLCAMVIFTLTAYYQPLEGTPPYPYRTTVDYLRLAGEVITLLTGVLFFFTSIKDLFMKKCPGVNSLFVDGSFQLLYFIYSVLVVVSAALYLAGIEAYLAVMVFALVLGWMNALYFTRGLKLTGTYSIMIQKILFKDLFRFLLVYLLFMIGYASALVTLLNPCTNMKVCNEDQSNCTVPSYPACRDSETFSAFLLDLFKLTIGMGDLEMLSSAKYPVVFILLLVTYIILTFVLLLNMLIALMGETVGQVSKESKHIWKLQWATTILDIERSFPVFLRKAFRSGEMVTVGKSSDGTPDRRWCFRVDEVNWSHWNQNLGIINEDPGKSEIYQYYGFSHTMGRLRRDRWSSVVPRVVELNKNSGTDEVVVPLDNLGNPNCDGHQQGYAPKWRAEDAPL
T1 sequence (Q6RI86 whole entry): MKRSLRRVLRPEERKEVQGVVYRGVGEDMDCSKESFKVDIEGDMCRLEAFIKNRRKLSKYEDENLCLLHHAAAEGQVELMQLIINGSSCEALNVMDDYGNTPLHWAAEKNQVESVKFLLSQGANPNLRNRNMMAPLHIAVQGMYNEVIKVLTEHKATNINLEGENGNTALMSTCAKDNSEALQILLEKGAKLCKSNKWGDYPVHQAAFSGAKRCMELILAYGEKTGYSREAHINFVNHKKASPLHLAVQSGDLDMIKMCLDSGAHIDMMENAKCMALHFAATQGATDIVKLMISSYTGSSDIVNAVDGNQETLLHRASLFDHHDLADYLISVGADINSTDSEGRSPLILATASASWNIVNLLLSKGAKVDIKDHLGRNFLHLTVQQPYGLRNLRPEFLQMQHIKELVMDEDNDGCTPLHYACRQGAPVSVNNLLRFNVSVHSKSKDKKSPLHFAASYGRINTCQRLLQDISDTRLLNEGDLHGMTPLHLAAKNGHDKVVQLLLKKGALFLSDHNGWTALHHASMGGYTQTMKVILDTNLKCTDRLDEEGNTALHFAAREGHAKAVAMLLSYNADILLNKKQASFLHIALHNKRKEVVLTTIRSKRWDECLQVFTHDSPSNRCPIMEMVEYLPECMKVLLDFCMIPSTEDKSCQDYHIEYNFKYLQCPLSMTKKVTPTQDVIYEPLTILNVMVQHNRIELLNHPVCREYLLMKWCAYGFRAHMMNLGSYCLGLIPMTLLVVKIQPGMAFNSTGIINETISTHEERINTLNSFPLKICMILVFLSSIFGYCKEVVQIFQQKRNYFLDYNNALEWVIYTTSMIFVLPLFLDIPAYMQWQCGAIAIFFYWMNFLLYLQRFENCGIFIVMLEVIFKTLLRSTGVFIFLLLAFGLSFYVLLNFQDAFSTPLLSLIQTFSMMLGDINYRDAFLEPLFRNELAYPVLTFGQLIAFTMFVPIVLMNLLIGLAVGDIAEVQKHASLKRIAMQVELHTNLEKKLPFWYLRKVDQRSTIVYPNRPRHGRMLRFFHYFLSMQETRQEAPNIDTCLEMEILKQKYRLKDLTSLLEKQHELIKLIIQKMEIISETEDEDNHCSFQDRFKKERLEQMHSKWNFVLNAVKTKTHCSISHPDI
T5 sequence (Q8NER1 whole entry): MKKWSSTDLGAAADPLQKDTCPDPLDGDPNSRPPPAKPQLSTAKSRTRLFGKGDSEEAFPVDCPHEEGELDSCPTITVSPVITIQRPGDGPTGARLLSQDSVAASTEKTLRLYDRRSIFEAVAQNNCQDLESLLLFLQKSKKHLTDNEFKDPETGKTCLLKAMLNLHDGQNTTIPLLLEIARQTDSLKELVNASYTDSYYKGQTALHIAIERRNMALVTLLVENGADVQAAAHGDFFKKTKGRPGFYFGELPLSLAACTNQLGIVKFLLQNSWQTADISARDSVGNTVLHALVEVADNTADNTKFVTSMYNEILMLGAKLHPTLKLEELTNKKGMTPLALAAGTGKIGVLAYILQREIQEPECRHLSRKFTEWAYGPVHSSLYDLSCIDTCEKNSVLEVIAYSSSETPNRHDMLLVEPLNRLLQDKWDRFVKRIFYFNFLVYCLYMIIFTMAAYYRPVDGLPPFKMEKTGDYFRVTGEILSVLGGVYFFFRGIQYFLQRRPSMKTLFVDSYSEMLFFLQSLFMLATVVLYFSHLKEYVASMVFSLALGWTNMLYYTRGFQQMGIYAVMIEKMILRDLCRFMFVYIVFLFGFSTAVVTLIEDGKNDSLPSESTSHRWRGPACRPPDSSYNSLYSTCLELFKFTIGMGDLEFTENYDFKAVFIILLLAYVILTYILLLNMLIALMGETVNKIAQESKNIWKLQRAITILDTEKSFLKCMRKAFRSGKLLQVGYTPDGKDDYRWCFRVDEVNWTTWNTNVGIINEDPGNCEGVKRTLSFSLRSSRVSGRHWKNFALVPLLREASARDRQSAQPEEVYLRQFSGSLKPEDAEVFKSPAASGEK
T6 sequence (Q8R455 whole entry): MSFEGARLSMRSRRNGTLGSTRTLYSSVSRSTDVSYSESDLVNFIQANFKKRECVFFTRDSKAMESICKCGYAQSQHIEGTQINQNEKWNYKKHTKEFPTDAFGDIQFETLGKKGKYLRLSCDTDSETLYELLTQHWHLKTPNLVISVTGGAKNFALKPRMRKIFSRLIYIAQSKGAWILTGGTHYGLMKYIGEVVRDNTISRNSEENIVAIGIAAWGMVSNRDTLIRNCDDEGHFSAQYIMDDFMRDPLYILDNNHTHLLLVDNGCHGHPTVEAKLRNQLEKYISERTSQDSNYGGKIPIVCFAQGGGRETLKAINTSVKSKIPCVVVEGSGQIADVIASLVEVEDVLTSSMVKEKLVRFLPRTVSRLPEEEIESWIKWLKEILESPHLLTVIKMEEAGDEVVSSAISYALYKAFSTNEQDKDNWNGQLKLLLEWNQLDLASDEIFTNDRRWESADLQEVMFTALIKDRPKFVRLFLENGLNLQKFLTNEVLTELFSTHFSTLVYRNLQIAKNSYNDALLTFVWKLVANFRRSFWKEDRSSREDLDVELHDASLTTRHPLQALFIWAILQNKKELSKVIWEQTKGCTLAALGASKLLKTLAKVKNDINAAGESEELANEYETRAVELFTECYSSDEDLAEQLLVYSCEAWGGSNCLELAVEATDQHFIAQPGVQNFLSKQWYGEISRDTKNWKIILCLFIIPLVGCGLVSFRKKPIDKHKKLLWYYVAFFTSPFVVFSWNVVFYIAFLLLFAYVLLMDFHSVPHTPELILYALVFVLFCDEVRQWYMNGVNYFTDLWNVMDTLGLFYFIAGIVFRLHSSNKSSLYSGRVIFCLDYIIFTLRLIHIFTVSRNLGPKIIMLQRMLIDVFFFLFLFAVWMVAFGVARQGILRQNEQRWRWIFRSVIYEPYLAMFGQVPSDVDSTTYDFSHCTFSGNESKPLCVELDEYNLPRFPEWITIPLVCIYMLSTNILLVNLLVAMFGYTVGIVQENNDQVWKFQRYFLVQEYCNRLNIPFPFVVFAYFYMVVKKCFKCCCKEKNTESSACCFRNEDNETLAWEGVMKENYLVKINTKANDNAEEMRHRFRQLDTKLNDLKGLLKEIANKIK

CCCCCc1cc(O)c(C/C=C(\C)CCC=C(C)C)c(O)c1 [7a, cannabigerol]
TRPA1 Efficacy (%ITC 100 μM) (rat TRPA1 [1]): 99.9 ± 1.1%
TRPV4 Efficacy (% IM 4 μM) (rat TRPV4): 23.7 ± 1.8%
IC50 (rat TRPV4; read-out: IC50 TRPV4, against agonist GSK1016790A 10 nM): 1300 nM
EC50 (rat TRPV4): 5.1 µM
TRPV2 Efficacy (% IM 4 μM) (rat TRPV2): 73.6 ± 1.2%
IC50 (rat TRPV3; against agonist thymol 100 μM, read-out: IC50 TRPV3): > 50 µM
EC50 (rat TRPV3; read-out: TRPV3 Potency EC50 (converted)): 1 µM
TRPV3 Efficacy (% IM 4 μM) (rat TRPV3): 18.5 ± 0.7%
IC50 TRPV1 (human TRPV1 [2]; against agonist capsaicin 0.1 μM): sub/low micromolar range
TRPV1 Efficacy (% IM 4 μM) (human TRPV1 [2]): 33.8 ± 2.3%

CCCCCCC(C)(C)c1cc(O)c2c(c1)OC(C)(C)c1ccc(C)cc1-2 [9b, Depentyl-α,α-dimethylheptyl-cannabinol]
IC50 (human TRPV1 [3]): > 100 µM
TRPV1 Efficacy (% IM 4 μM) (human TRPV1 [3]; percentage of the response to ionomycin 4 μM, HEK-293): <10 <10%
EC50 (rat TRPA1 [4]): 2100 ± 900 nM
IC50 (rat TRPA1 [4]): 3.2 ± 0.6 µM
TRPA1 Efficacy (%ITC 100 μM) (rat TRPA1 [4]; percentage of the effect of 100 μM allylisothiocyanate on [Ca2+]i, HEK-293): 132.3 ± 7.9%
IC50 (rat TRPM8 [5]): 980 ± 120 nM

CCCCCc1cc(O)c2c(c1)OC(C)(C)c1ccc(C)cc1-2 [9a, cannabinol]
TRPA1 Efficacy (%ITC 100 μM) (rat TRPA1 [1]): 83.3 ± 12.0%
IC50 (rat TRPA1 [1]; read-out: IC50 TRPA1, against agonist AITC 100 μM): 400 nM
TRPV1 Efficacy (% IM 4 μM) (human TRPV1 [2]): <10 <10%
IC50 (human TRPV1 [2]; read-out: IC50 TRPV1, against agonist capsaicin 0.1 μM): > 50 µM

CCCCCc1cc(O)c2c(c1)OC(C)(C)[C@@H]1CC=C(C)C[C@@H]21 [6a, Δ^8-tetrahydrocannabinol]
TRPA1 Efficacy (%ITC 100 μM) (rat TRPA1 [1]): 117.0 ± 12.0%
EC50 (rat TRPA1 [1]; read-out: TRPA1 Potency EC50, half-maximal increase in [Ca2+]i): 230 nM
IC50 (rat TRPM8 [6]): 160 nM
TRPV4 Efficacy (% IM 4 μM) (rat TRPV4): <10 <10% and 15.3 ± 1.5%
EC50 (rat TRPV4): 16.1 ± 4.5 µM
TRPV2 Efficacy (% IM 4 μM) (rat TRPV2): 53.0 ± 1.4% and 39.9 ± 2.1%
IC50 (rat TRPV2; read-out: IC50 TRPV2, against agonist CBD 2 μM): 800 nM
TRPV3 Efficacy (% IM 4 μM) (rat TRPV3): 18.2 ± 1.0% and 13.1 ± 2.4%
EC50 (rat TRPV3; read-out: TRPV3 Potency EC50): 9.5 µM and 5.3 µM
TRPV1 Efficacy (% IM 4 μM) (human TRPV1 [2]): < 10%

Reference: publication PMC8391922, “The Combined Effect of Branching and Elongation on the Bioactivity Profile of Phytocannabinoids. Part I: Thermo-TRPs” (Biomedicines, 2021)
